Measured values taken from PubChem BioAssay AID2060502 (Molecular Pharmacology Branch, DTP, NCI, 2025).

Test system: 885724-159-R-J1-PDC complex spheroid viability
Assay: Anticancer human tumor 885724-159-R-J1-PDC patient-derived pancreatic adenocarcinoma cell line growth inhibition [GQUAD]
Settings: for IC50: curve of first compound; for viability, T/C: stronger effect = lower value
Method in brief: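 Tumor cells were grown as complex spheroids with HUVEC endothelial cells and mesenchymal stem cells as stroma. G-quadruplex stabilizers were combined with targeted agents over half-log dilutions from near the clinical Cmax, or from 10 microM.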

[1] = second compound 0.0316 µM, first compound 0.0316 µM
[2] = second compound 0.0316 µM, first compound 0.1 µM
[3] = second compound 0.0316 µM, first compound 0.316 µM
[4] = second compound 0.0316 µM, first compound 1 µM
[5] = second compound 0.0316 µM, first compound 3.16 µM
[6] = second compound 0.0316 µM, first compound 10 µM
[7] = second compound 0.1 µM, first compound 0.0316 µM
[8] = second compound 0.1 µM, first compound 0.1 µM
[9] = second compound 0.1 µM, first compound 0.316 µM
[10] = second compound 0.1 µM, first compound 1 µM
[11] = second compound 0.1 µM, first compound 3.16 µM
[12] = second compound 0.1 µM, first compound 10 µM
[13] = second compound 0.316 µM, first compound 0.0316 µM
[14] = second compound 0.316 µM, first compound 0.1 µM
[15] = second compound 0.316 µM, first compound 0.316 µM
[16] = second compound 0.316 µM, first compound 1 µM
[17] = second compound 0.316 µM, first compound 3.16 µM
[18] = second compound 0.316 µM, first compound 10 µM
[19] = second compound 1 µM, first compound 0.0316 µM
[20] = second compound 1 µM, first compound 0.1 µM
[21] = second compound 1 µM, first compound 0.316 µM
[22] = second compound 1 µM, first compound 1 µM
[23] = second compound 1 µM, first compound 3.16 µM
[24] = second compound 1 µM, first compound 10 µM
[25] = second compound 3.16 µM, first compound 0.0316 µM
[26] = second compound 3.16 µM, first compound 0.1 µM
[27] = second compound 3.16 µM, first compound 0.316 µM
[28] = second compound 3.16 µM, first compound 1 µM
[29] = second compound 3.16 µM, first compound 3.16 µM
[30] = second compound 3.16 µM, first compound 10 µM
[31] = second compound 10 µM, first compound 0.0316 µM
[32] = second compound 10 µM, first compound 0.1 µM
[33] = second compound 10 µM, first compound 0.316 µM
[34] = second compound 10 µM, first compound 1 µM
[35] = second compound 10 µM, first compound 3.16 µM
[36] = second compound 10 µM, first compound 10 µM
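Note: spheroids exposed to agents for seven days before readout.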
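Throughout, for viability, T/C: percent of vehicle control viability where 100% = DMSO wells.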

For `O=C(c1cc(Cc2n[nH]c(=O)c3ccccc23)ccc1F)N1CCN(C(=O)C2CC2)CC1` + Cc1cnc(CNC(=O)c2c(=O)c3ccc(N4CCCN(C)CC4)nc3n3c2sc2ccccc23)cn1, the IC50 (second compound 0.0316 µM) was greater than 10 µM, the IC50 (second compound 0.1 µM) was greater than 10 µM and the IC50 (second compound 0.316 µM) was greater than 10 µM. The IC50 (second compound 1 µM) was greater than 10 µM, the IC50 (second compound 3.16 µM) was greater than 10 µM and the IC50 (second compound 10 µM) was greater than 10 µM. The viability, T/C [1] was 97.6%, the viability, T/C [2] was 96.7% and the viability, T/C [3] was 98.6%. For the same molecule, the viability, T/C [4] was 99.2%, the viability, T/C [5] was 87.3% and the viability, T/C [6] was 90.8%. For the same molecule, the viability, T/C [7] was 115%, the viability, T/C [8] was 109% and the viability, T/C [9] was 105%. It also gave a viability, T/C [10] of 90.6%, a viability, T/C [11] of 84.6% and a viability, T/C [12] of 83.5%. It also gave a viability, T/C [13] of 88%, a viability, T/C [14] of 93.7% and a viability, T/C [15] of 88.9%. The viability, T/C [16] was 85.5%, the viability, T/C [17] was 85.5% and the viability, T/C [18] was 77%. The viability, T/C [19] was 87.8%, the viability, T/C [20] was 83.2% and the viability, T/C [21] was 78.8%. The viability, T/C [22] was 77.7%, the viability, T/C [23] was 87% and the viability, T/C [24] was 65.3%. The viability, T/C [25] was 78.2%, the viability, T/C [26] was 80.3% and the viability, T/C [27] was 78.2%. It also gave a viability, T/C [28] of 74%, a viability, T/C [29] of 76.2% and a viability, T/C [30] of 57.4%. The viability, T/C [31] was 71.7%, the viability, T/C [32] was 70.7% and the viability, T/C [33] was 70.9%. For the same molecule, the viability, T/C [34] was 73.1%, the viability, T/C [35] was 64.8% and the viability, T/C [36] was 66.2%.
`COc1ccc([C@@H](O)c2cc(-c3ncnc4cc(N5CCOCC5)ccc34)c(F)cc2Cl)nn1` + CN(C)c1ccc(Nc2c3ccc(NC(=O)CCN4CCCC4)cc3nc3cc(NC(=O)CCN4CCCC4)ccc23)cc1 was tested, and the IC50 (second compound 0.0316 µM) was 6.35 µM, the IC50 (second compound 0.1 µM) was 4.79 µM and the IC50 (second compound 0.316 µM) was 5.21 µM. For the same molecule, the IC50 (second compound 1 µM) was 3.02 µM, the IC50 (second compound 3.16 µM) was 3.14 µM and the IC50 (second compound 10 µM) was 2.73 µM. It also gave a viability, T/C [1] of 88.5%, a viability, T/C [2] of 89% and a viability, T/C [3] of 79.8%. For the same molecule, the viability, T/C [4] was 85.3%, the viability, T/C [5] was 58.4% and the viability, T/C [6] was 44.6%. It also gave a viability, T/C [7] of 95.7%, a viability, T/C [8] of 90.5% and a viability, T/C [9] of 95.7%. For the same molecule, the viability, T/C [10] was 73.5%, the viability, T/C [11] was 59% and the viability, T/C [12] was 36.9%. It also gave a viability, T/C [13] of 89.3%, a viability, T/C [14] of 82.3% and a viability, T/C [15] of 79.2%. It also gave a viability, T/C [16] of 70.7%, a viability, T/C [17] of 62.8% and a viability, T/C [18] of 36.3%. The viability, T/C [19] was 78.9%, the viability, T/C [20] was 84.1% and the viability, T/C [21] was 82.7%. For the same molecule, the viability, T/C [22] was 70.2%, the viability, T/C [23] was 49.6% and the viability, T/C [24] was 30.2%. The viability, T/C [25] was 71.6%, the viability, T/C [26] was 70.9% and the viability, T/C [27] was 73.7%. For the same molecule, the viability, T/C [28] was 60.4%, the viability, T/C [29] was 50.9% and the viability, T/C [30] was 29.6%. For the same molecule, the viability, T/C [31] was 72.9%, the viability, T/C [32] was 81.5% and the viability, T/C [33] was 69.5%. It also gave a viability, T/C [34] of 62.2%, a viability, T/C [35] of 49% and a viability, T/C [36] of 25.2%.
`CC(=O)O[C@H]1C(=O)[C@@]2(C)[C@H]([C@H](OC(=O)c3ccccc3)[C@]3(O)C[C@H](OC(=O)[C@H](O)[C@@H](NC(=O)c4ccccc4)c4ccccc4)C(C)=C1C3(C)C)[C@]1(OC(C)=O)CO[C@@H]1C[C@@H]2O` + CN(C)c1ccc(Nc2c3ccc(NC(=O)CCN4CCCC4)cc3nc3cc(NC(=O)CCN4CCCC4)ccc23)cc1 showed an IC50 (second compound 0.0316 µM) greater than 10 µM, an IC50 (second compound 0.1 µM) greater than 10 µM and an IC50 (second compound 0.316 µM) greater than 10 µM. It also gave an IC50 (second compound 1 µM) greater than 10 µM, an IC50 (second compound 3.16 µM) greater than 10 µM and an IC50 (second compound 10 µM) greater than 10 µM. For the same molecule, the viability, T/C [1] was 92.9%, the viability, T/C [2] was 82.8% and the viability, T/C [3] was 81.8%. It also gave a viability, T/C [4] of 85.3%, a viability, T/C [5] of 88% and a viability, T/C [6] of 98.7%. The viability, T/C [7] was 94%, the viability, T/C [8] was 92.7% and the viability, T/C [9] was 82.3%. For the same molecule, the viability, T/C [10] was 89.8%, the viability, T/C [11] was 83.9% and the viability, T/C [12] was 96.8%. For the same molecule, the viability, T/C [13] was 81.7%, the viability, T/C [14] was 82.4% and the viability, T/C [15] was 83.8%. It also gave a viability, T/C [16] of 76.7%, a viability, T/C [17] of 85.5% and a viability, T/C [18] of 81.1%. It also gave a viability, T/C [19] of 77.4%, a viability, T/C [20] of 64.3% and a viability, T/C [21] of 78.6%. For the same molecule, the viability, T/C [22] was 68%, the viability, T/C [23] was 84.4% and the viability, T/C [24] was 82.5%. For the same molecule, the viability, T/C [25] was 77.9%, the viability, T/C [26] was 56.1% and the viability, T/C [27] was 63.6%. For the same molecule, the viability, T/C [28] was 66.2%, the viability, T/C [29] was 66.6% and the viability, T/C [30] was 72.1%. It also gave a viability, T/C [31] of 66.4%, a viability, T/C [32] of 69.6% and a viability, T/C [33] of 65.4%. It also gave a viability, T/C [34] of 67.4%, a viability, T/C [35] of 69.6% and a viability, T/C [36] of 67.7%.
`Cc1cccc(N(C)C(=O)C2C(O)CCN2c2nc(C)cc(C(F)(F)F)c2C#N)c1` (stereo not drawn) + Cc1cnc(CNC(=O)c2c(=O)c3ccc(N4CCCN(C)CC4)nc3n3c2sc2ccccc23)cn1 showed an IC50 (second compound 0.0316 µM) greater than 10 µM, an IC50 (second compound 0.1 µM) greater than 10 µM and an IC50 (second compound 0.316 µM) greater than 10 µM. It also gave an IC50 (second compound 1 µM) greater than 10 µM, an IC50 (second compound 3.16 µM) greater than 10 µM and an IC50 (second compound 10 µM) greater than 10 µM. The viability, T/C [1] was 93.7%, the viability, T/C [2] was 107% and the viability, T/C [3] was 108%. It also gave a viability, T/C [4] of 99.7%, a viability, T/C [5] of 104% and a viability, T/C [6] of 96.9%. The viability, T/C [7] was 107%, the viability, T/C [8] was 106% and the viability, T/C [9] was 112%. It also gave a viability, T/C [10] of 98.6%, a viability, T/C [11] of 91.8% and a viability, T/C [12] of 108%. For the same molecule, the viability, T/C [13] was 103%, the viability, T/C [14] was 84% and the viability, T/C [15] was 89.3%. For the same molecule, the viability, T/C [16] was 93.9%, the viability, T/C [17] was 101% and the viability, T/C [18] was 82.5%. The viability, T/C [19] was 83.6%, the viability, T/C [20] was 95.6% and the viability, T/C [21] was 88.3%. The viability, T/C [22] was 88.4%, the viability, T/C [23] was 93.9% and the viability, T/C [24] was 94.3%. The viability, T/C [25] was 84%, the viability, T/C [26] was 70.5% and the viability, T/C [27] was 79.1%. For the same molecule, the viability, T/C [28] was 72.8%, the viability, T/C [29] was 79.4% and the viability, T/C [30] was 73.3%. It also gave a viability, T/C [31] of 92.7%, a viability, T/C [32] of 90.9% and a viability, T/C [33] of 84.8%. For the same molecule, the viability, T/C [34] was 72.6%, the viability, T/C [35] was 103% and the viability, T/C [36] was 84.3%.
